Results on 1 compound are retold here after patent publication US10286022B2, “Medicinal composition of extract of seed of emblica officinalis and method of preparing the same” (priority 2013, dated 2019).

Assay [1] relates to Triton WR 1339 induced dyslipidemia in Albino rats (Sprague Dawley strain). The assay can be described thus: Hypolipidemic activity of enriched amla seed extract, Triton WR 1339 model (Example 28). In kind it is in vivo, rat. As to the method:
Fifty two male Albino rats (Sprague Dawley strain) weighing approximately 250-300 gm were selected for the study. The animals were maintained at temperature of 24±2° C., 65% relative humidity and 12 hr light/dark cycle. The rats were acclimatized for two weeks and during this period they had access to standard pellet diet and water ad libitum. After two weeks of acclimatization, all the rats were fasted overnight before injecting Triton WR 1339 (Tyloxapol) and administration of test extracts/standard. The animals were divided into thirteen groups. Following treatment was given to overnight fasted rats: • Group I: Normal control (vehicle only). • Group II: Triton WR 1339 (300 mg/kg, intraperitoneal). • Group III: Triton WR 1339 (300 mg/kg, intraperitoneal) followed by administering sample 1 of Amla seed extract prepared as per example 27 on the same day of triton administration (0.5 mg/kg, per oral). • Group IV: Triton WR 1339 (300 mg/kg, intraperitoneal) followed by Amla seed extract prepared as per example 1 (0.5 mg/kg, per oral). • Group V: Triton WR 1339 (300 mg/kg, intraperitoneal) followed by sample 2 which is a 1:1 combination of amla seed extract (sample 1) prepared as per example 27 and product 1 (Hexane fraction) of amla seed extract prepared as per example 13 on the same day that Triton was administered (0.5 mg/kg, per oral). • Group VI: Triton WR 1339 (300 mg/kg, intraperitoneal) followed by administering product of amla seed extract (product 3) prepared as per example 13 on the same day of triton administration (0.5 mg/kg, per oral). • Group VII: Triton WR 1339 (300 mg/kg, intraperitoneal) followed by product 2 (50% methanol fraction+80% methanol fraction+water fraction) of amla seed extract prepared as per example 13 on the same day that triton was administered (0.5 mg/kg, per oral). • Group VIII: Triton WR 1339 (300 mg/kg, intraperitoneal) followed by product 1 (hexane fraction) of amla seed extract prepared as per example 13 on the same day that triton was administered (0.5 mg/kg, per oral). • Group IX: Triton WR 1339 (300 mg/kg, intraperitoneal) followed by water extract of dried amla seed powder prepared as per example 8 (0.5 mg/kg, per oral). • Group X: Triton WR 1339 (300 mg/kg, intraperitoneal) followed by methanol extract of dried amla seed powder prepared as per example 9 (0.5 mg/kg, per oral). • Group XI: Triton WR 1339 (300 mg/kg, intraperitoneal) followed by water extract of dried amla fruit powder prepared as per example 11 (0.5 mg/kg, per oral). • Group XII: Triton WR 1339 (300 mg/kg, intraperitoneal) followed by methanol extract of dried amla fruit powder prepared as per example 12 (0.5 mg/kg, per oral). • Group XIII: Triton WR 1339 (300 mg/kg, intraperitoneal) followed by atorvastatin administration (10 mg/kg, per oral), on the same day.
The animals were deprived of food for next 24 hours but had free access to water ad libitum. After 24 hours of drug treatment, 2 ml of blood sample was collected from the retro orbital plexus. The blood was allowed to clot and then centrifuged at 3000 rpm for 10 min and the serum was carefully drawn and collected into separate tubes. The serum was analyzed for total cholesterol, triglycerides, high density lipoproteins (HDL), low density lipoproteins (LDL) and very low density lipoproteins (VLDL) levels using auto-analyzer.

For assay [2] the test system is unchanged. The assay can be described thus: Screening of hypolipidemic activity, Triton WR 1339 induced dyslipidemia model (Example 18). In kind it is in vivo, rat. As to the method: Twenty four male Albino rats (Sprague Dawley strain) weighing approximate 250-300 gm were selected for the study. The animals were kept in the animal house maintained at temp 24±2° C., 65% relative humidity and 12 hr light/dark cycle. The rats were acclimatized for two weeks and during this period they had access to standard pellet diet and water ad libitum. After two weeks of acclimatization, all the rats were fasted overnight before injecting Triton WR 1339 (Tyloxapol) and administration of test extracts/standard. The animals were divided into four groups Following treatment was given to overnight fasted rats: • Group I: Normal control (vehicle only). • Group II: Triton WR 1339 (300 mg/kg, intraperitoneal). • Group III: Triton WR 1339 (300 mg/kg, intraperitoneal) followed by amla seed extract prepare as per example 1 (10 mg/kg, per oral). • Group IV: Triton WR 1339 (300 mg/kg, intraperitoneal) followed by Atorvastatin (10 mg/kg, per oral).
The animals were deprived of food for next 24 hours but had free access to water ad libitum. After 24 hour of drug treatment 2 ml blood samples were collected from the retro orbital plexus. The blood was allowed to clot and then centrifuged at 3000 rpm for 10 min and the serum was carefully drawn and collected into separate tubes. The serum was analyzed for total cholesterol, triglycerides, high density lipoproteins (HDL), low density lipoproteins (LDL) and very low density lipoproteins (VLDL) levels using auto-analyzer.

Setting [3] is: 24 h after Triton i.p. + 10 mg/kg p.o.

`CC(C)c1c(C(=O)Nc2ccccc2)c(-c2ccccc2)c(-c2ccc(F)cc2)n1CC[C@@H](O)C[C@@H](O)CC(=O)O` [Atorvastatin]: in assay [1] (setting [3]), the “HDL After” value amounted to 35.1 mg/dL, the “LDL After” value was determined as 49.39 mg/dL, the “TC After” value is 124.54 mg/dL and the “TG After” value is 200.25 mg/dL. In assay [1] (setting [3]), the “VLDL After” value came out at 40.06 mg/dL. Besides, in assay [1] (baseline, 10 mg/kg p.o. group), the “HDL Before” value worked out at 32.41 mg/dL, the “LDL Before” value turned out to be 61.7 mg/dL, the “TC Before” value was 104.21 mg/dL and the “TG Before” value was determined as 50.54 mg/dL. Moreover, the “VLDL Before” value in assay [1] (baseline, 10 mg/kg p.o. group) was found to be 10 mg/dL. Also, the “effect on cholesterol and triglyceride level” value in assay [2] (10 mg/kg p.o.) is listed as “effective in lowering the cholesterol as well as triglyceride level”. For the same compound, in assay [2] (setting [3]), the “HDL After” value was 32.37 mg/dL, the “LDL After” value was determined as 77.61 mg/dL, the “TC After” value is 131.9 mg/dL and the “TG After” value was determined as 109.67 mg/dL. In addition, the “VLDL After” value in assay [2] (setting [3]) was 21.93 mg/dL. Besides, in assay [2] (baseline, 10 mg/kg p.o. group), the “HDL Before” value worked out at 29.13 mg/dL, the “LDL Before” value worked out at 62.43 mg/dL, the “TC Before” value worked out at 100.4 mg/dL and the “TG Before” value was found to be 44.26 mg/dL. Moreover, in assay [2] (baseline, 10 mg/kg p.o. group), the “VLDL Before” value is 8.85 mg/dL.
